# Measurements: PubChem BioAssay (NCI)
#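 Briefly, cells in 96-well plates were exposed to five compound concentrations for 48 h, and endpoints were estimated by linear interpolation. GI50: concentration for 50% inhibition of growth. TGI: total growth inhibition.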
# Experiments:
# Assay in all cases: NCI tumour cell line growth inhibition, 48 h
# [1] = tested on: COLO 205 colon
# [2] = tested on: IGROV1 ovarian
# [3] = tested on: MALME-3M melanoma
# [4] = tested on: MDA-MB-231 breast
# [5] = tested on: SK-MEL-2 melanoma
# [6] = tested on: SK-MEL-28 melanoma
# [7] = tested on: SK-OV-3 ovarian
# [8] = tested on: SR leukemia
# [9] = tested on: U251 CNS
# [10] = tested on: MCF7 breast
SMILES,TGI [1] [µM],TGI [2] [µM],TGI [3] [µM],TGI [4] [µM],TGI [5] [µM],TGI [6] [µM],TGI [7] [µM],TGI [8] [µM],TGI [9] [µM],TGI [10] [µM],GI50 [2] [µM],GI50 [10] [µM],GI50 [4] [µM],GI50 [7] [µM],GI50 [9] [µM],GI50 [5] [µM],GI50 [6] [µM],GI50 [8] [µM]
O=S(=O)(O)c1ccc2c(N=Nc3ccccc3Cl)c(O)ccc2c1,> 100,> 100,> 100,> 100,> 100,> 100,> 100,> 100,> 100,–,–,–,–,–,–,–,–,–
Cc1ccc([N+](=O)[O-])cc1S(=O)(=O)Nc1ccc(C2=NNC(c3cccs3)C2)cc1 (configuration not stated),35.6,> 100,> 100,–,> 100,> 100,89.4,78.8,–,47.8,–,–,–,–,–,–,–,–
NC12CC3CC4C1CC1CC2C(C3)C4(N)C1,> 100,> 100,> 100,> 100,> 100,> 100,> 100,–,> 100,> 100,–,–,–,–,–,–,–,–
CCOC(=O)c1cc(=O)oc2c1N(C)c1ncccc1N2,> 100,–,–,> 100,> 100,> 100,> 100,> 100,> 100,> 100,–,–,–,–,–,–,–,–
O=C1CCCCC[C@]12SC[C@H]1CON=C12,> 100,> 100,> 100,–,–,> 100,> 100,> 100,42.2,82.4,–,–,–,–,–,–,–,–
CSc1nncc2[nH]cnc12,> 100,> 100,–,> 100,> 100,> 100,–,> 100,> 100,> 100,–,–,–,–,–,–,–,–
COc1cc2c(cc1OC)C(Cc1ccccc1CCCl)=NCC2,> 100,> 100,–,> 100,> 100,> 100,> 100,> 100,> 100,> 100,–,–,–,–,–,–,–,–
CCOC(=O)c1c(C)[nH]c(/C=C2\N=C(c3ccc[nH]3)C=C2OC)c1C,–,1.09,–,1.32,–,–,3.71,–,1.59,1.3,0.0305,0.0469,0.0263,0.413,0.052,–,–,–
CSc1ccc(/C=C2\N=C(c3ccccc3)N(c3nc4c(Cl)cc(Cl)cc4s3)C2=O)cc1,> 100,> 100,–,62.5,41.4,> 100,84.9,50.3,37.3,> 100,–,–,–,–,–,–,–,–
COc1cc(/C=C/C(=O)N[C@@H]2C(=O)N3[C@@H]2SC(C)(C)[C@@H]3C(=O)O)cc(OC)c1OC,> 100,–,–,> 100,> 100,> 100,> 100,–,> 100,> 100,–,–,–,–,–,–,–,–
Cc1ccc(/C=N/NC2=NCCN2)s1,> 100,> 100,> 100,> 100,> 100,> 100,> 100,–,> 100,> 100,–,–,–,–,–,–,–,–
COc1cc(C(=O)Nc2c3ccccc3nc3ccccc23)cc(OC)c1OC,> 100,> 100,> 100,> 100,> 100,> 100,> 100,–,> 100,> 100,–,–,–,–,–,–,–,–
CN[C@@H](C)[C@H](OP(=O)(O)OC1[C@@H](O)[C@H](O)C(O)[C@H](O)[C@@H]1O)c1ccccc1 (some centres not stated),> 100,> 100,> 100,> 100,> 100,> 100,> 100,–,> 100,> 100,–,–,–,–,–,–,–,–
COC(=O)c1cc2c3c(cc(O)c2[nH]1)N(C(=O)C1Cc2cc(OC)c(OC)c(OC)c2N1)CC3CCl (configuration not stated),–,0.98,–,–,< 0.01,< 0.01,< 0.01,> 100,0.0109,–,< 0.01,–,–,< 0.01,< 0.01,< 0.01,< 0.01,< 0.01
CCOC(=O)C(C)(C)/C=C\C(Cl)=C(Cl)Cl,> 100,> 100,> 100,> 100,–,> 100,> 100,> 100,–,–,–,–,–,–,–,–,–,–
Nc1nc(N)c2nc(-c3ccco3)cnc2n1,> 100,> 100,> 100,–,–,> 100,> 100,> 100,> 100,–,–,–,–,–,–,–,–,–
CCc1n[nH]c(=O)n1NC(=O)c1ccccc1C(=O)O,> 100,> 100,–,> 100,> 100,> 100,> 100,> 100,> 100,> 100,–,–,–,–,–,–,–,–
